Experimental data published in patent US20130261130A1, “NEUROTRYPSIN INHIBITORS” (priority 2010, published 2013).

Biological target: T1, human neurotrypsin (Homo sapiens, UniProt P56730)
T1 sequence (P56730 21-875): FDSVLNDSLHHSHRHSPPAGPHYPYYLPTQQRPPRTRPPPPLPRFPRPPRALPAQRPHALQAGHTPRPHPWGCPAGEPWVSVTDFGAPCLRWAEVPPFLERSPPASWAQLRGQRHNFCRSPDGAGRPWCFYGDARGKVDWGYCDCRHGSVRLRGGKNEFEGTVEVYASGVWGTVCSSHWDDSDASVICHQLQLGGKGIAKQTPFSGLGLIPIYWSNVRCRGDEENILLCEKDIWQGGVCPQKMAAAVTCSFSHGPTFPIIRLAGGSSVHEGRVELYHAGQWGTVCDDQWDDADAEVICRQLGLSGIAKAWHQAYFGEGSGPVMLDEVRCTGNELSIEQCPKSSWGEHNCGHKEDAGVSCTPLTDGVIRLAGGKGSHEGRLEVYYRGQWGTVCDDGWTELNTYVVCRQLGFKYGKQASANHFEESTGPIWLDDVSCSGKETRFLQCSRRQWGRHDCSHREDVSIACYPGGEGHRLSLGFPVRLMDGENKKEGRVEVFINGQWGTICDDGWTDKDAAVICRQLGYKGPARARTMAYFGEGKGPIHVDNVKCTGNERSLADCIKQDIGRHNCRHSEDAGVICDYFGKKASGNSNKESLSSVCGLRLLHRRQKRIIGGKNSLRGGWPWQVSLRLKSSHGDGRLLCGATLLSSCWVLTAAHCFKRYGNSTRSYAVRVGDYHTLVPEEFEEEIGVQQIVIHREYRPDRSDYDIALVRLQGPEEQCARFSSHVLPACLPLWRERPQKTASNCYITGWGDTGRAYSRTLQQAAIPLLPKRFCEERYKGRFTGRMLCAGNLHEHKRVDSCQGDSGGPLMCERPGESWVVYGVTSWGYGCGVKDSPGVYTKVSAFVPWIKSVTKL
Experiment: Determination of IC50 for human neurotrypsin
Type: biochemical
Conditions: human neurotrypsin; method of WO 2006/1103261; read-out: Neurotrypsin IC50
Description: Assessment of the potency of compounds of examples 1-311 in inhibiting the enzymatic activity of human neurotrypsin was performed according to the method described in patent application WO 2006/1103261

Row | Molecule | IC50
1 | 2-(6-Chlorobenzo[b]-thiophene-2-carboxamido)-5-((5-chlorothiophen-2-yl-methyl)carbamoyl)benzoic acid [Example 107] | 4.8 µM
2 | 3-Chloro-N-(5-(5-chloro-1,3-thiazol-2-ylcarbamoyl)-2-(2H-tetrazol-5-yl)phenyl)benzo[b]-thiophene-2-carboxamide [Example 227] | 9.7 µM
3 | 4-(4-tert-Butoxyphenyl-carbamoyl)-3-(3-chloro-thiophene-2-carboxamido)-benzoic acid [Example 194] | 5.9 µM
4 | 5-(N-4-Butylphenyl-N-methyl-carbamoyl)-2-(4-(5,6-dichloro-1H-benzo[d]-imidazol-2-yl)benzamido)-benzoic acid [Example 44] | 1.6 µM
5 | O=C(Nc1ccc(Cl)cc1)c1ccc(C(=O)O)c(NC(=O)c2sc3ccccc3c2Cl)c1 [Example 1, 2-(3-Chlorobenzo[b]thiophene-2-carboxamido)-4-(4-chlorophenylcarbamoyl)-benzoic acid] | 8.5 µM
6 | O=C(Nc1ccc(Cl)cc1F)c1ccc(C(=O)O)c(NC(=O)c2sc3ccccc3c2Cl)c1 [Example 5, 2-(3-Chlorobenzo[b]-thiophene-2-carboxamido)-4-(4-chloro-2-fluoro-phenyl-carbamoyl)benzoic acid] | 1.9 µM
7 | O=C(Nc1ccc(Cl)cc1)c1ccc(C(=O)O)c(NC(=O)c2ccc(-c3ccccc3)s2)c1 [Example 9, 4-(4-Chlorophenyl-carbamoyl)-2-(5-phenyl-thiophene-2-carboxamido)-benzoic acid] | 25.7 µM
8 | O=C(Nc1ccc(Cl)cn1)c1ccc(C(=O)O)c(NC(=O)c2sc3ccccc3c2Cl)c1 [Example 16, 2-(3-Chlorobenzo[b]-thiophene-2-carboxamido)-4-(5-chloropyridin-2-yl-carbamoyl)benzoic acid] | 8 µM
9 | O=C(Nc1ccc(Cl)cc1)c1ccc(C(=O)O)c(NC(=O)c2sc3cc(Cl)ccc3c2Cl)c1 [Example 18, 4-(4-Chlorophenyl-carbamoyl)-2-(3,6-dichloro-benzo[b]thiophene-2-carboxamido)benzoic acid] | 8.3 µM
10 | O=C(Nc1ccc(Cl)cc1)c1ccc(C(=O)O)c(NC(=O)c2cc3ccc(Cl)cc3s2)c1 [Example 23] | 2.6 µM
11 | O=C(O)c1ccc(C(=O)N2CCC(Cc3ccccc3)CC2)cc1NC(=O)c1sc2ccccc2c1Cl [Example 24, 4-(4-Benzylpiperidine-1-carbonyl)-2-(3-chloro-benzo[b]thiophene-2-carboxamido)benzoic acid] | 4 µM
12 | O=C(O)c1ccc(C(=O)Nc2ccc(Cl)cc2)c(NC(=O)c2ccc(-c3ccccc3)s2)c1 [Example 25, 4-(4-Chlorophenyl-carbamoyl)-3-(5-phenyl-thiophene-2-carboxamido)-benzoic acid] | > 150 µM
13 | O=C(Nc1ccc(Cl)cc1)c1ccc(NC(=O)c2sc3ccccc3c2Cl)c(C(=O)O)c1 [Example 26, 2-(3-Chlorobenzo[b]-thiophene-2-carboxamido)-5-(4-chlorophenylcarbamoyl)-benzoic acid] | 3.2 µM
14 | O=C(Nc1ncc(Cl)s1)c1ccc(C(=O)O)c(NC(=O)c2ccc(-c3ccc(F)cc3)s2)c1 [Example 27, 4-(5-Chlorothiazol-2-yl-carbamoyl)-2-(5-(4-fluorophenyl)thiophene-2-carboxamido)benzoic acid] | 5 µM
15 | O=C(O)c1ccc(C(=O)N2CCC(Oc3ccccc3)CC2)cc1NC(=O)c1sc2ccccc2c1Cl [Example 28, 2-(3-Chlorobenzo[b]-thiophene-2-carboxamido)-4-(4-phenoxypiperidine-1-carbonyl)benzoic acid] | 11.3 µM
16 | O=C(NC1CCCc2ccccc21)c1ccc(C(=O)O)c(NC(=O)c2sc3ccccc3c2Cl)c1 (stereo not drawn) [Example 32, 2-(3-Chlorobenzo[b]-thiophene-2-carboxamido)-4-(1,2,3,4-tetrahydro-naphthalen-1-ylcarbamoyl)-benzoic acid] | 13.6 µM
17 | O=C(NC12CC3CC(CC(C3)C1)C2)c1ccc(C(=O)O)c(NC(=O)c2sc3ccccc3c2Cl)c1 [Example 33, 2-(3-Chlorobenzo[b]-thiophene-2-carboxamido)-4-(adamantylcarbamoyl)-benzoic acid] | 4.5 µM

Row | Molecule | IC50
18 | O=C(N[C@@H]1C[C@H]2CC[C@@H]1C2)c1ccc(C(=O)O)c(NC(=O)c2sc3ccccc3c2Cl)c1 [Example 34, 4-((1R,2R,4S)-Bicyclo[2.2.1]-heptan-2-ylcarbamoyl)-2-(3-chlorobenzo[b]thiophene-2-carboxamido)benzoic acid] | 14.1 µM
19 | O=C(O)c1cc(C(=O)N2CCC(c3c(Cl)cccc3Cl)CC2)ccc1NC(=O)c1sc2ccccc2c1Cl [Example 35, 2-(3-Chlorobenzo[b]-thiophene-2-carboxamido)-5-(4-(2,6-dichlorophenyl)-piperidine-1-carbonyl)benzoic acid] | 3.2 µM
20 | O=C(Nc1ccc(Cl)cc1)c1ccc(NC(=O)c2ccc(-c3nc4ccccc4[nH]3)cc2)c(C(=O)O)c1 [Example 36, 2-(4-(1H-Benzo[d]imidazol-2-yl)benzamido)-5-(4-chloro-phenylcarbamoyl)benzoic acid] | 3.5 µM
21 | O=C(Nc1ccc(Cl)cc1)c1ccc(NC(=O)c2ccc(-c3nc4cc(Cl)ccc4[nH]3)cc2)c(C(=O)O)c1 [Example 37, 2-(4-(5-Chloro-1H-benzo[d]-imidazol-2-yl)benzamido)-5-(4-chlorophenylcarbamoyl)-benzoic acid] | 1.6 µM
22 | O=C(Nc1ccc(C(=O)N2CCC(c3ccc(F)cc3)CC2)cc1C(=O)O)c1ccc(-c2nc3cc(Cl)c(Cl)cc3[nH]2)cc1 [Example 38, 2-(4-(5,6-Dichloro-1H-benzo[d]imidazol-2-yl)-benzamido)-5-(4-(4-fluorophenyl)piperidine-1-carbonyl)benzoic acid] | 4.8 µM
23 | O=C(Nc1ccc(Cl)cc1)c1ccc(C(=O)O)c(NC(=O)c2ccc(-c3nc4cc(Cl)c(Cl)cc4[nH]3)cc2)c1 [Example 40, 4-(4-Chlorophenyl-carbamoyl)-2-(4-(5,6-di-chloro-1H-benzo[d]imidazol-2-yl)benzamido)benzoic acid] | 0.8 µM
24 | CC(C)CN(CC(C)C)C(=O)c1ccc(NC(=O)c2ccc(-c3nc4cc(Cl)c(Cl)cc4[nH]3)c(O)c2)c(C(=O)O)c1 [Example 42, 2-(4-(5,6-Dichloro-1H-benzo[d]imidazol-2-yl)-3-hydroxybenzamido)-5-(diisobutylcarbamoyl)benzoic acid] | 4.4 µM
25 | CC(C)CCN(C)C(=O)c1ccc(NC(=O)c2ccc(-c3nc4cc(Cl)c(Cl)cc4[nH]3)cc2)c(C(=O)O)c1 [Example 43, 2-(4-(5,6-Dichloro-1H-benzo[d]imidazol-2-yl)-benzamido)-5-(N-isopentyl-N-methylcarbamoyl)benzoic acid] | 3.9 µM
26 | CC(C)CN(C(=O)c1ccc(NC(=O)c2ccc(-c3nc4cc(Cl)c(Cl)cc4[nH]3)cc2)c(C(=O)O)c1)c1ccc(Cl)cc1 [Example 45, 5-(N-4-Chlorophenyl-N-isobutylcarbamoyl)-2-(4-(5,6-dichloro-1H-benzo[d]-imidazol-2-yl)benzamido)-benzoic acid] | 1.5 µM
27 | CC(C)CN(CC(C)C)C(=O)c1ccc(NC(=O)c2ccc(-c3nc4cc(Cl)c(Cl)cc4n3C)cc2)c(C(=O)O)c1 [Example 46, 2-(4-(5,6-Dichloro-1-methyl-1H-benzo[d]imidazol-2-yl)benzamido)-5-(diisobutyl-carbamoyl)benzoic acid] | 3.4 µM
28 | O=C(Nc1ccccc1F)c1ccc(NC(=O)c2ccc(-c3nc4cc(Cl)c(Cl)cc4[nH]3)cc2)c(C(=O)O)c1 [Example 48, 2-(4-(5,6-Dichloro-1H-benzo[d]imidazol-2-yl)-benzamido)-5-(2-fluoro-phenylcarbamoyl)benzoic acid] | 3.4 µM
29 | CN(CC1CCCCC1)C(=O)c1ccc(NC(=O)c2ccc(-c3nc4cc(Cl)c(Cl)cc4[nH]3)cc2)c(C(=O)O)c1 [Example 49, 5-(N-Cyclohexylmethyl-N-methylcarbamoyl)-2-(4-(5,6-dichloro-1H-benzo[d]-imidazol-2-yl)benzamido)-benzoic acid] | 6.6 µM
30 | O=C(Nc1ccc(Cl)cc1F)c1ccc(NC(=O)c2ccc(-c3nc4cc(Cl)c(Cl)cc4[nH]3)cc2)c(C(=O)O)c1 [Example 51, 5-(4-Chloro-2-fluorophenyl-carbamoyl)-2-(4-(5,6-dichloro-1H-benzo[d]-imidazol-2-yl)benzamido)-benzoic acid] | 0.5 µM
31 | O=C(Nc1nccs1)c1ccc(C(=O)O)c(NC(=O)c2sc3ccccc3c2Cl)c1 [Example 52, 2-(3-Chlorobenzo[b]thiophene-2-carboxamido)-4-(thiazol-2-ylcarbamoyl)-benzoic acid] | 15.4 µM
32 | O=C(Nc1ncc(Cl)s1)c1ccc(C(=O)O)c(NC(=O)c2sc3ccccc3c2Cl)c1 [Example 59] | 9 µM
33 | O=C(Nc1ncc(Cl)s1)c1ccc(C(=O)O)c(NC(=O)c2ccc(-c3ccccc3)s2)c1 [Example 62] | 7.5 µM
